Laboratory results as given in ChEMBL document CHEMBL6134812, “A thiocoumarin based self-reporting sulfide prodrug strategy with a favorable safety profile” (Eur J Med Chem, 2025).
Calls of active or inactive are those of the source. The calls are words filed in the database; no cut-off is given here.

Legend:
Liver carboxylesterase [1] = target: T1, Liver carboxylesterase (Sus scrofa, UniProt Q29550); test: Prodrug release assessed as pig liver esterase-mediated H2S and fluorescent coumarin release by measuring half life of drug at 500 uM by HPLC analysis; format: ADME
T1 sequence (Q29550 whole entry): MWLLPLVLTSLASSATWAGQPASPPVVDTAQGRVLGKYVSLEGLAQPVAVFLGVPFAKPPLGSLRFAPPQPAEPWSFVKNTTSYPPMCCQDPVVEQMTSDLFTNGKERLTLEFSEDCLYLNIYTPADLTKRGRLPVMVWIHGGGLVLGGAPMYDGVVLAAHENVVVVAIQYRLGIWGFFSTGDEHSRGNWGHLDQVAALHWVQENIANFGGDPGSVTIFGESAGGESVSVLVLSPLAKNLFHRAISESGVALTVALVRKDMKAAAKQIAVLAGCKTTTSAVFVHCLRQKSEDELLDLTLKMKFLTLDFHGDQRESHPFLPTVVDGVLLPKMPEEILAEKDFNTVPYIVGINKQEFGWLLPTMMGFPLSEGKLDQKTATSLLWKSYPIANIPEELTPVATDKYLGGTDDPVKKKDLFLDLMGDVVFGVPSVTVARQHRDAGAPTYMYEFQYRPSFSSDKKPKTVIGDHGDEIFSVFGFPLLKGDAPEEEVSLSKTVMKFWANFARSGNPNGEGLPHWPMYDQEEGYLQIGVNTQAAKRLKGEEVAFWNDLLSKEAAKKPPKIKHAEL

[2] = Prodrug release in Sprague-Dawley rat plasma assessed as increase in fluorescence intensity by measuring half life at 500 uM by fluorescence based analysis; format: ADME, cell-free
Mus musculus [3] = test: Anticoagulant activity in C57BL/6J mouse assessed as prothrombin time at 40 mg/kg, ip; format: functional, organism-based
Mus musculus [4] = test: Anticoagulant activity in C57BL/6J mouse assessed as tail bleeding time at 40 mg/kg, ip and measured for 40 mins; format: functional
Mus musculus [5] = test: Protection against cerebral infarction in C57BL/6JNifdc mouse tMCAO model assessed as decrease in infarction area in brain at 100 umol/kg, iv measured after 24 hrs by TTC staining based analysis; format: functional, organism-based; conditions: dose 100.0 µmol/kg
Mus musculus [6] = test: Anticoagulant activity in C57BL/6J mouse assessed as activated partial thromboplastin time at 40 mg/kg, ip; format: functional, organism-based
Mus musculus [7] = test: Protection against cerebral infarction in C57BL/6JNifdc mouse tMCAO model assessed as decrease in LDH level in brain at 100 umol/kg, iv measured after 24 hrs; format: functional, organism-based; conditions: dose 100.0 µmol/kg
Mus musculus [8] = test: Protection against cerebral infarction in C57BL/6JNifdc mouse tMCAO model assessed as decrease in MDA level in serum at 100 umol/kg, iv measured per mg protein after 24 hrs; format: functional; conditions: dose 100 µmol/kg
[9] = Prodrug release in Sprague-Dawley rat plasma assessed as fluorescence intensity at 500 uM by fluorescence based analysis; format: ADME, cell-free
[10] = Prodrug release in C57BL/6J mouse kidney assessed as increase in fluorescence intensity at 100 umol/kg, iv measured after 6 hrs by fluorescence based analysis; format: ADME, organism-based; conditions: in vivo, dose 100 µmol/kg
Liver carboxylesterase [11] = target: T1, Liver carboxylesterase; test: Prodrug release assessed as pig liver esterase-mediated H2S and coumarin release by measuring H2S concentration at 500 uM measured after 12 hrs by methylene blue method; format: ADME; conditions: isolated protein
[12] = Prodrug release in C57BL/6J mouse kidney assessed as H2S generation by measuring increase in fluorescence intensity at 100 umol/kg, iv measured after 6 hrs by Ex vivo fluorescent imaging analysis; format: ADME, organism-based; conditions: dose 100 µmol/kg
Liver carboxylesterase [13] = target: T1, Liver carboxylesterase; test: Prodrug release assessed as pig liver esterase-mediated H2S and fluorescent coumarin release at 500 uM incubated for 24 hrs in presence of esterase inhibitor by HPLC analysis; format: ADME; conditions: isolated protein
[14] = Prodrug release in C57BL/6J mouse brain assessed as increase in fluorescence intensity at 100 umol/kg, iv measured after 6 hrs by fluorescence based analysis; format: ADME, organism-based; conditions: in vivo, dose 100 µmol/kg
[15] = Prodrug release in Sprague-Dawley rat plasma assessed as fluorescence intensity at 500 uM measured after 24 hrs in presence of esterase inhibitor by fluorescence based analysis; format: ADME, cell-free
[16] = Prodrug release in C57BL/6J mouse brain assessed as H2S generation by measuring increase in fluorescence intensity at 100 umol/kg, iv measured after 6 hrs by Ex vivo fluorescent imaging analysis; format: ADME, organism-based; conditions: dose 100 µmol/kg
[17] = Prodrug release in C57BL/6J mouse liver assessed as H2S generation by measuring increase in fluorescence intensity at 100 umol/kg, iv measured after 6 hrs by Ex vivo fluorescent imaging analysis; format: ADME, organism-based; conditions: dose 100 µmol/kg
Liver carboxylesterase [18] = target: T1, Liver carboxylesterase; test: Prodrug release assessed as pig liver esterase-mediated H2S and fluorescent coumarin release by measuring half life of drug at 500 uM by fluorescence based analysis; format: ADME
[19] = Prodrug release in C57BL/6J mouse liver assessed as increase in fluorescence intensity at 100 umol/kg, iv measured after 6 hrs by fluorescence based analysis; format: ADME, organism-based; conditions: in vivo, dose 100 µmol/kg
[20] = Acute toxicity in C57BL/6J mouse assessed as creatinine level in serum at 869 mg/kg, ip measured after 24 hrs; format: organism-based; conditions: in vivo
Mus musculus [21] = test: Acute renal toxicity in C57BL/6J mouse assessed as albumin level in serum at 869 mg/kg, ip measured after 24 hrs; format: organism-based; conditions: in vivo
[22] = Acute toxicity in C57BL/6J mouse assessed as morphological changes in kidney at 869 mg/kg, ip measured after 24 hrs by Hematoxylin-Eosin staining based analysis; format: organism-based; conditions: in vivo
[23] = Acute liver toxicity in C57BL/6J mouse assessed as ALP level in serum at 869 mg/kg, ip measured after 24 hrs; format: organism-based; conditions: in vivo
[24] = Acute toxicity in C57BL/6J mouse assessed as total bilirubin level in serum at 869 mg/kg, ip measured after 24 hrs; format: organism-based; conditions: in vivo
[25] = Acute liver toxicity in C57BL/6J mouse assessed as AST level in serum at 869 mg/kg, ip measured after 24 hrs; format: organism-based; conditions: in vivo
[26] = Acute toxicity in C57BL/6J mouse assessed as morphological changes in liver at 869 mg/kg, ip measured after 24 hrs by Hematoxylin-Eosin staining based analysis; format: organism-based; conditions: in vivo
[27] = Acute toxicity in C57BL/6J mouse assessed as uric acid level in serum at 869 mg/kg, ip measured after 24 hrs; format: organism-based; conditions: in vivo
[28] = Acute toxicity in C57BL/6J mouse assessed as total protein level at 869 mg/kg, ip measured after 24 hrs; format: organism-based; conditions: in vivo
Mus musculus [29] = test: Acute renal toxicity in C57BL/6J mouse assessed as GSH level in kidney at 869 mg/kg, ip measured after 24 hrs; format: organism-based; conditions: in vivo
[30] = Acute toxicity in C57BL/6J mouse assessed as visible bleeding in cerebral area at 869 mg/kg, ip measured after 24 hrs; format: organism-based; conditions: in vivo
[31] = Acute liver toxicity in C57BL/6J mouse assessed as gamma-GT level in liver at 869 mg/kg, ip measured after 24 hrs; format: organism-based; conditions: in vivo
[32] = Acute toxicity in C57BL/6J mouse assessed as SOD level at 869 mg/kg, ip measured after 24 hrs; format: organism-based; conditions: in vivo
[33] = Acute liver toxicity in C57BL/6J mouse assessed as ALT level in serum at 869 mg/kg, ip measured after 24 hrs; format: organism-based; conditions: in vivo
[34] = Drug uptake in C57BL/6J mouse kidney assessed as increase in fluorescence intensity at 100 umol/kg, iv measured after 10 mins by Ex vivo fluorescent imaging analysis; format: ADME, organism-based; conditions: dose 100 µmol/kg
[35] = Drug uptake in C57BL/6J mouse brain assessed as increase in fluorescence intensity at 100 umol/kg, iv measured after 10 mins by Ex vivo fluorescent imaging analysis; format: ADME, organism-based; conditions: dose 100 µmol/kg
[36] = Drug uptake in C57BL/6J mouse liver assessed as increase in fluorescence intensity at 100 umol/kg, iv measured after 10 mins by Ex vivo fluorescent imaging analysis; format: ADME, organism-based; conditions: dose 100 µmol/kg

COc1ccc2cc3c(C)cc(=S)oc3cc2c1
t1/2 (Liver carboxylesterase [1]): > 120 h
t1/2 [2]: 9.06 h

CCN(CC)c1ccc2c(C)cc(=S)oc2c1
Activity (Mus musculus [3]): Active; Retained The Anticoagulant Activity Of Coumarins Observed
Time (Mus musculus [4]): 16.6 min
Activity (Mus musculus [5]): Active
Activity (Mus musculus [6]): Active; Retained The Anticoagulant Activity Of Coumarins Observed
t1/2 (Liver carboxylesterase [1]): > 120 h
Activity (Mus musculus [7]): Active
Activity (Mus musculus [8]): 7.4 nmol

CCN(CC)c1ccc2c(CN(C)O)cc(=S)oc2c1
t1/2 (Liver carboxylesterase [1]): > 120 h
t1/2 [2]: 5.78 h

Cc1cc(=S)oc2cc3cc(O)ccc3cc12
t1/2 (Liver carboxylesterase [1]): > 120 h
t1/2 [2]: 52.4 h

S=c1ccc2ccc3occc3c2o1
t1/2 (Liver carboxylesterase [1]): 66.71 h
Drug metabolism [9]: metabolite_notdetected

CCN(CC)c1ccc2c(C)cc(=O)oc2c1
Time (Mus musculus [4]): 9.58 min
Activity (Mus musculus [5]): Active; Slight Decrease Compared To Thio-Coumarins (Sulfide Prodrugs)

Cc1cc(=S)oc2cc(O)ccc12
Drug metabolism [10]: metabolite_detected
Drug metabolism (Liver carboxylesterase [11]): 31.46 µM
Activity (Mus musculus [3]): Active; Retained The Anticoagulant Activity Of Coumarins Observed
Drug metabolism [12]: metabolite_detected
Drug metabolism (Liver carboxylesterase [13]): metabolite_notdetected
Time (Mus musculus [4]): 10.84 min
Activity (Mus musculus [5]): Active
Drug metabolism [14]: metabolite_detected
Activity (Mus musculus [6]): Active; Retained The Anticoagulant Activity Of Coumarins Observed
Drug metabolism [15]: metabolite_notdetected
t1/2 (Liver carboxylesterase [1]): 57.59 h
Activity (Mus musculus [7]): Active
t1/2 [2]: 2.52 h
Drug metabolism [16]: metabolite_detected
Activity (Mus musculus [8]): 7.59 nmol
Drug metabolism [17]: metabolite_detected
t1/2 (Liver carboxylesterase [18]): 50.4 h
Drug metabolism [19]: metabolite_detected

S=c1ccc2cc3ccoc3cc2o1
Activity [20]: Non-toxic
Activity (Mus musculus [21]): Non-toxic
Activity (Mus musculus [3]): Active; Retained The Anticoagulant Activity Of Coumarins Observed
Activity [22]: Non-toxic
Time (Mus musculus [4]): 16.52 min
Activity (Mus musculus [5]): Active
Activity (Mus musculus [6]): Active; Retained The Anticoagulant Activity Of Coumarins Observed
Activity [23]: Non-toxic
Activity [24]: Non-toxic
Activity [25]: Non-toxic
Activity [26]: Non-toxic
Activity [27]: Non-toxic
t1/2 (Liver carboxylesterase [1]): 62.89 h
Activity [28]: Non-toxic
Activity (Mus musculus [7]): Active
t1/2 [2]: 3.95 h
Activity (Mus musculus [8]): 14.14 nmol
Activity (Mus musculus [29]): Non-toxic
Activity [30]: Non-toxic
Activity [31]: Non-toxic
Activity [32]: Non-toxic
Activity [33]: Non-toxic

Cc1cc(=O)oc2cc(O)ccc12 [HYMECROMONE]
Drug uptake [34]: Active
Drug uptake [35]: Active
Drug uptake [36]: Active
Time (Mus musculus [4]): 13.99 min
Activity (Mus musculus [5]): Active; Slight Decrease Compared To Thio-Coumarins (Sulfide Prodrugs)

Cc1cc(=S)oc2cc(N(C)C)ccc12
t1/2 (Liver carboxylesterase [1]): > 120 h
t1/2 [2]: 36.22 h

Nc1ccc2c(C(F)(F)F)cc(=S)oc2c1
t1/2 (Liver carboxylesterase [1]): > 120 h
t1/2 [2]: 9.43 h

S=c1ccc2ccccc2o1
t1/2 (Liver carboxylesterase [1]): 94.44 h
Drug metabolism [9]: metabolite_notdetected

O=c1ccc2cc3ccoc3cc2o1 [PSORALEN]
Time (Mus musculus [4]): 22.24 min
Activity (Mus musculus [5]): Active; Slight Decrease Compared To Thio-Coumarins (Sulfide Prodrugs)
